Laboratory results published in patent US20250262179A1, “PHARMACEUTICAL COMPOSITION FOR PREVENTING AND/OR TREATING AUTOIMMUNE DISEASES” (NATIONAL CENTER FOR CHILD HEALTH AND DEVELOPMENT, priority 2022, published 2025).

Test system: collagen-induced arthritis (CIA) model rats
Test: Collagen-induced arthritis (CIA) model: foot volume and arthritis score
Type: in vivo, DA/Slc rats
Method: For 9 weeks-old female DA/Slc rats, under isoflurane anesthesia employing a simplified inhalation anesthesia device for animals (model type: NARCOBIT-E (type II), Natsume Seisakusho Co., Ltd.), the tail root which is the administration site was shaved with an electric shaver, and 0.05 mL in each of left and right sides of the tail root of all animals for a total of 0.1 mL of the symptom evoking substance administration fluid was intracutaneously administrated with a syringe (Terumo Corporation) and an injection needle (Terumo Corporation). The symptom evoking substance administration fluid was prepared by adding bovine type-II collagen and an equal amount of Incomplete Freund Adjuvant to an interchangeable glass syringe (TOP Corporation), and then mixing well.
The symptom evoking substance was administered only on Day 0, and each test substance was administered before the administration of the symptom evoking substance on the first day. MTX was suspended in 0.5 w/v % methylcellulose 400 solution (MC). ALA employed was aminolevulinic acid hydrochloride, and weights shown below are weights as aminolevulinic acid hydrochloride. […]
For measurement of foot volume, the foot volumes of left and right posterior limbs were each measured on Days 0 (before grouping), 4, 7, 11, 14, and 18 with a Plethysmometer (model type: MK-101P, Muromachi Kikai Co., Ltd.). The foot volume was measured three times per foot, and the average value of the three was calculated. The foot volume of the other foot was similarly measured. The foot volume measurement value of one individual was calculated with the following mathematical formula. […]
The measurement value before grouping was set as the Pre-value and the measurement value at each measurement point after grouping was set as the Post-value, and the value of increase in foot volume (A mL) was calculated by Post-value-Pre-value for each individual.
The arthritis score measurement was measured on each of Days 0 (before grouping), 4, 7, 11, 14, and 18. […] Note that the total sum of left and right arthritis scores was calculated as the score for that individual. […]

[1] = Day 18, oral once a day for 18 days, MTX 0.02 mg/kg, ALA 100 mg/kg, SFC 157 mg/kg

With CN(Cc1cnc2nc(N)nc(N)c2n1)c1ccc(C(=O)N[C@@H](CCC(=O)O)C(=O)O)cc1 [MTX, (S)-2-(4-(((2,4-diaminopteridin-6-yl)methyl)methylamino)benzamido) pentanedioic acid] the “intergroup difference to Group 5 (control) in arthritis score” value [1] was 1.5, the “intergroup difference to Group 5 (control) in value of increase in foot volume” value [1] was 0.16 mL and the “anti-inflammatory effect in CIA model rats” value (Group 1, only MTX 0.02 mg/kg oral daily) was “a certain level of anti-inflammatory effect was seen”.
